Experimental data published in patent US20060281791A1, “Methods of increasing proliferation of adult mammalian cardiomyocytes through p38 map kinase inhibition” (CHILDREN'S MEDICAL CENTER CORPORATION, priority 2005, published 2006).

Tests used:
adult cardiomyocytes = experiment: Ki67 staining of adult cardiomyocytes; format: cell-based, rat; conditions: 12 days of stimulation
Protocol: Animal experiments were performed in accordance with guidelines of Children's Hospital, Boston and UCLA. Ventricular cardiomyocytes from fetal (E19), 2-day-old (P2) and adult (250-350 g) Wistar rats (Charles River) were isolated as described with minor modifications (Engel et al. 1999; Engel et al. 2003). After digestion of fetal or neonatal hearts (0.14 mg/ml collagenase II (Invitrogen), 0.55 mg/ml pancreatin (Sigma)) cells were cultured in DMEM/F12 (GIBCO) containing 3 mM Na-pyruvate, 0.2% BSA, 0.1 mM ascorbic acid (Sigma), 0.5% Insulin-Transferrin-Selenium (100×), penicillin (100 U/ml), streptomycin (100 μg/ml), and 2 mM L-glutamine (GIBCO). […]
Staining was performed as described (Supplemental Table S3) (Engel et al. 1999; Engel et al. 2003). Immune complexes were detected with ALEXA 350, ALEXA 488 or ALEXA 594-conjugated secondary antibodies (1:200, Molecular Probes). […]
Eighteen to 40 hearts of 3 different litters were used for quantitative analyses of maximal areas. For immunofluorescence analyses 1,500 fetal or neonatal cardiomyocytes were counted. For adult cardiomyocyte analyses in vitro the following number of cells were counted: 500-2,000 for BrdU or Ki67, 9,000-25,000 for H3P, and 12,000-45,000 for aurora B. For in vivo MKK3bE and p38α knockout experiments 2 different litters were used. We counted 1,500-2,000 cells in each apex, left and right ventricle per heart. […]

[1] = tested on: myocardial infarction in adult rats; experiment: Scar volume (trichrome stain) after myocardial infarction; format: in vivo, rat
Protocol: To determine whether p38 inhibition/FGF1 stimulation can induce cardiomyocyte proliferation in vivo and whether it has a positive effect on cardiac function after cardiac injury we created myocardial infarctions (MI) in adult rats (250 g) by coronary artery ligation. The p38 inhibitor SB203580 HCl or its vehicle, saline, were injected intraperitoneal every three days for the first month of the study. FGF1 or its carrier BSA was injected mixed with self-assembling peptides once into the infarct border zone immediately after coronary artery ligation. We injecting a total of 80 μl of 400 ng/ml FGF1, given at 3 different injection sites, into 400 mg of infarcted myocardium estimated to deliver a FGF 1 concentration to the cardiomyocytes of approximately 50 to 100 ng/ml. Animals were analyzed 24 hours, 2 weeks, and 3 month after surgery. […]
To determine if p38 inhibition and FGF1 stimulation have an effect on infarct size we determined scar volume using trichrome stain. […]
Scar formation was determined as fibrotic area/(fibrotic+non-fibrotic area) based on all sections. The thinning index is a ratio of the amount of wall thinning in the infarct normalized to the thickness of the septum and is calculated by dividing the minimal infarct wall thickness with maximal septal wall thickness (2 weeks: section 1 to 4, 3 month: section 1 to 6 from base).

Substance: FGF1: growth factor FGF1 (R&D Systems)
- Ki67-positive adult cardiomyocytes (adult cardiomyocytes): 1.7±0.5%
- scar size (scar volume) ([1]; 2 weeks): significantly reduced
- scar size (scar volume) ([1]; 3 month): significantly reduced
